Patent publication EP0538001A1, “MRSA active 2-halophenyl carbapenems” (MERCK & CO. INC., priority 1991, dated 1993)

The molecules below were run on MRSA (assay: Activity against a strain of MRSA pathogen, relative to thienamycin). Conditions: relative to the effectiveness of thienamycin, arbitrarily assigned an effectiveness of 1; one strain of MRSA.
Format: cell-based, methicillin resistant Staphylococcus aureus
Description: The activity of the following compounds was measured against a strain of MRSA pathogen and reported as relative to the effectiveness of thienamycin, which is arbitrarily assigned an effectiveness of 1. Regarding this measure of activity, reference is made to R. Guthikonda, et al., J. Med. Chem., 30, 871 (1987). [drawing 18]

| SMILES | ANTI-INFECTIVE ACTIVITY MRSA |
| --- | --- |
| C[C@@H](O)[C@H]1C(=O)N2C(C(=O)O)=C(c3ccc(F)cc3)C[C@H]12 [R^a1 = H, R^a2 = F] | 1.1 |
| C[C@@H](O)[C@H]1C(=O)N2C(C(=O)O)=C(c3ccc(Cl)cc3)C[C@H]12 [R^a1 = H, R^a2 = Cl] | 1.3 |
| C[C@@H](O)[C@H]1C(=O)N2C(C(=O)O)=C(c3cccc(Br)c3)C[C@H]12 [R^a1 = Br, R^a2 = H, sodium (5R,6S)-2-[3-bromophenyl]-6[(1R)-1-hydroxyethyl]-carbapen-2-em-3-carboxylate] | 14 |
| C[C@@H](O)[C@H]1C(=O)N2C(C(=O)O)=C(c3cccc(F)c3)C[C@H]12 [R^a1 = F, R^a2 = H] | 2 |
| C[C@@H](O)[C@H]1C(=O)N2C(C(=O)O)=C(c3cccc(Cl)c3)C[C@H]12 [R^a1 = Cl, R^a2 = H] | 8.1 |
| C[C@@H](O)[C@H]1C(=O)N2C(C(=O)O)=C(c3ccc(Br)cc3)C[C@H]12 [R^a1 = H, R^a2 = Br] | 1.6 |
| C[C@@H](O)[C@H]1C(=O)N2C(C(=O)O)=C(c3ccc(I)cc3)C[C@H]12 [R^a1 = H, R^a2 = I] | 1.8 |
